The values that follow are results of earlier work, collected in US7850723B1, “Method and apparatus for patient temperature control employing titration of therapy using EEG signals” (Innercool Therapies, Inc., priority 2005, dated 2010).

In data set [1] the test system is clots. Particulars: clots treated with plasminogen (2 mg) and SK (100 IU) in 15 ml PBS; clot temperature raised from 24° C. to 37° C.
The conditions of data set [2]: in vivo.
Data set [3] relates to clots. The following applies: clots treated with UK at 4° C. and 28° C.; heating to 28° C.

Regarding streptokinase [SK], the fibrinolytic activity result in data set [1] was “heating enhanced the fibrinolytic activity”.

Regarding `CCOC(=O)C1(c2ccccc2)CCN(C)CC1` [Meperidine], the “decrease of shivering threshold relative to vasoconstriction threshold” value in data set [2] was “twice as much”.

On to urokinase [UK], for which the “fibrinolytic activity (conversion of plasminogen to plasmin)” value in data set [3] is “complete conversion of all plasminogen to plasmin”.
